Key:
[1] = comparison given in brackets; cited from earlier work
[2] = tested on: adult subjects with relapsing MS; assay: Phase III OPTIMUM study, safety and treatment discontinuation
Method: A prospective, multicenter, randomized, double-blind, active controlled, parallel-group, phase III, superiority study (Phase III OPTIMUM study) was conducted.
Subjects had active disease evidenced by one or more MS attacks with onset within the period of 12 to 1 months prior to baseline EDSS assessment, or by two or more MS attacks with onset within the 24 to 1 months prior to baseline EDSS assessment, or with one or more gadolinium-enhancing (Gd+) lesion(s) of the brain on an MRI performed within 6 months prior to baseline EDSS assessment. Enrolled subjects were ambulatory with an EDSS score of up to 5.5 inclusive. The subjects were treatment-naïve (i.e., no MS disease-modifying therapy received at any time in the past) or previously treated with interferon (IFN) β-1a, IFN β-1b, glatiramer acetate, dimethyl fumarate, or natalizumab.
The treatment period consisted of an up-titration period (from Day 1 to 14) and a maintenance period (Day 15 until EOT).
To reduce the first-dose effect of ponesimod, an up-titration scheme was implemented from Day 1 to Day 14: • Days 1 and 2; 2 mg. • Days 3 and 4; 3 mg. • Days 5 and 6; 4 mg. • Day 7; 5 mg. • Day 8; 6 mg. • Day 9; 7 mg. • Day 10; 8 mg. • Day 11; 9 mg. • Days 12, 13, and 14; 10 mg. • Day 15 until EOT; 20 mg.
The Safety Set (SAF) included all randomized subjects who received at least one dose of study treatment. Subjects were analyzed based on actual treatment taken, not randomized treatment.

[3] = tested on: primary mouse OPCs; assay: agarose drop migration assay; format: cell-based; conditions: 3000 nM; after 5 days; normalized to 0.1% DMSO
Method: The effects of ponesimod, a selective S1P1 receptor agonist, and A971432, a selective S1P5 receptor agonist, on oligodendrocyte precursor cell (OPC) migration and differentiation were evaluated. Nine concentrations were tested (logarithmic dilutions ranging from 0.3 nM to 3000 nM, n=6 per concentration). Fingolimod phosphate (P-FTY720, 3000 nM, n=6) was included as a positive control, 0.1% DMSO was included (min.one/plate) as a negative control. Primary mouse OPCs were harvested on postnatal day 0 or 1 and mixed glia cultures were maintained for 14 days. Primary OPCs were then purified using the shake-off method, and used for either a migration assay, or a differentiation assay, as detailed below. To harvest primary mouse OPCs, cortices are isolated from mouse pups on postnatal day 0 or 1 and placed in ice-cold Dulbecco's Modified Eagle Medium (DMEM) (Sigma Aldrich, Overijse, BE). The cortices are homogenized and centrifuged for 5 minutes at 300 G. The supernatant is removed, and a papain solution is added for 30 minutes (125 uL DMEM solution per brain containing 20 units/ml papain and 40 μg/ml DNase, at 37 degrees). Digestion is inactivated by adding 9 ml cold DMEM. The solution is then centrifuged for 5 minutes at […]. The supernatant is carefully removed, and the pellet is resuspended in 2-5 ml culture medium (DMEM with 10% fetal calf serum (Biowest, Nuaillé, FR) and 1% pen/strep (Sigma Aldrich, Overijse, BE)). […] Cell suspension is divided over PLL (Sigma Aldrich, Overijse, BE)-coated flasks (2 brains per flask) and DMEM is added to a final volume of 10 ml. DMEM is replaced on day 4, 7, and 11. On day 7 and 11, insulin (Sigma Aldrich, Overijse, BE) is added to the medium (5μg/ml). On day 14, OPCs are separated from astrocytes by the shake-off method: flasks are placed on a shaker for 45 minutes at 75 rpm (37 degrees). […] The extent of cell migration is then measured after 5 days using Incucyte imaging analysis and fluorescent endpoint staining. For each well, the 15-20 cells that migrated the furthest away from the agarose drop are measured and averaged. […]

[4] = Safety Set, ponesimod 20 mg, teriflunomide 14 mg
[5] = ponesimod 20 mg, teriflunomide 14 mg

## CCCCCCCCc1ccc(CCC(N)(CO)CO)cc1 [fingolimod]
[1]
  ECG HR effect: nadir: ~6 h

## CCc1cc(/C(C)=N/OCc2ccc(C3CCCCC3)c(C(F)(F)F)c2)ccc1CN1CC(C(=O)O)C1 [siponimod]
[1]
  ECG HR effect: nadir: 3 to 4 h

## C/C(O)=C(\C#N)C(=O)Nc1ccc(C(F)(F)F)cc1 [teriflunomide]
[2]; Day 1, all with pre-treatment HR<55 bpm
  subjects with asymptomatic post-dose HR≤40 bpm: none
[2]; [4]
  AEs leading to premature discontinuation of study drug, SOC Eye disorders: 0 n
  AEs leading to premature discontinuation of study drug, SOC Respiratory, thoracic and mediastinal disorders: 0 n
  AEs leading to premature discontinuation of study drug, SOC Vascular disorders: 0 n
  Subject with at least one AE leading to study drug discontinuation: 6.0%
  Subject with at least one Serious AE: 8.1%
  Subject with at least one treatment-emergent AE: 88.2%
  Treatment-emergent AESI: Hepatobiliary disorders/Liver enzyme abnormality: 14.5%
  Treatment-emergent AESI: Hypertension: 9.0%
  Treatment-emergent AESI: Pulmonary events: 2.7%
[2]; at 2-hours post dose, Day 1
  mean heart rate reduction compared to pre-dose: −1.7 bpm
[2]; on Day 1, Safety Set
  AESI heart rate and rhythm: Atrioventricular block first degree: 0 n
  AESI heart rate and rhythm: Bradycardia: 0 n
  AESI heart rate and rhythm: Bundle branch block left: 0 n
  AESI heart rate and rhythm: Bundle branch block right: 0 n
  AESI heart rate and rhythm: Defect conduction intraventricular: 0 n
  AESI heart rate and rhythm: Sinus arrhythmia: 0 n
  AESI heart rate and rhythm: Sinus bradycardia: 0 n
[2]; on Day 1, Safety Set, ponesimod arm (2 mg on Day 1), teriflunomide 14 mg
  AESI effect on heart rate and rhythm (including hypotension): Subjects with at least one AE: 0.4%
[2]; [5]
  TEAE ALT increased: 9.4%
  TEAE headache: 12.7%
  TEAE nasopharyngitis: 16.8%
  TEAE upper respiratory tract infection: 10.4%
  proportion of subjects who experienced ALT increase>3×ULN: 8.3%
  proportion of subjects who experienced ALT increase>8×ULN: 2.1%
  subjects discontinued due to AEs or tolerability related reasons: 2.5%

## fingolimod phosphate
[3]
  migration distance: significantly decreased migration distance

From patent US20240261267A1, “METHODS FOR TREATING MULTIPLE SCLEROSIS” (Vanda Pharmaceuticals Inc., priority 2021, published 2024)
